# Experimental data taken from paper PMC4460250, “Systems Pharmacology Dissecting Holistic Medicine for Treatment of Complex Diseases: An Example Using Cardiocerebrovascular Diseases Treated by TCM” (Evidence-based Complementary and Alternative Medicine : eCAM, 2015).
# Columns and labels:
# [1] = in vivo
# [2] = in vivo; cited from earlier work
Compound,Class(High: HIA value ≥0.7; Low: HIA value < 0.7) [1],HIA(Human Intestinal Absorption) [2]
CCCCC1C(=O)N(c2ccccc2)N(c2ccccc2)C1=O [Phenylbutazone],High (key: High: HIA value ≥0.7; Low: HIA value < 0.7),0.98
CC(N)C(O)c1ccccc1 (centres unmarked) [Phenylpropanolamine],High (key: High: HIA value ≥0.7; Low: HIA value < 0.7),0.95
CC(C)NC[C@@H](O)COc1cccc2[nH]ccc12 [Pindolol(R)],High (key: High: HIA value ≥0.7; Low: HIA value < 0.7),0.9
CC(C)NC[C@H](O)COc1cccc2[nH]ccc12 [Pindolol(S)],High (key: High: HIA value ≥0.7; Low: HIA value < 0.7),0.9
CC(C)(C)NC[C@@H](O)c1ccc(O)c(CO)n1 [Pirbuterol(R)],Low (key: High: HIA value ≥0.7; Low: HIA value < 0.7),0.6
CC(C)(C)NC[C@H](O)c1ccc(O)c(CO)n1 [Pirbuterol(S)],Low (key: High: HIA value ≥0.7; Low: HIA value < 0.7),0.6
C[N+]1(C)CCCC1COC(=O)C(O)(c1ccccc1)c1ccccc1 (centres unmarked) [Poldine],Low (key: High: HIA value ≥0.7; Low: HIA value < 0.7),0.05
CN1[C@H](CSCC(F)(F)F)Nc2cc(Cl)c(S(N)(=O)=O)cc2S1(=O)=O [Polythiazide(R)],High (key: High: HIA value ≥0.7; Low: HIA value < 0.7),1
CN1[C@@H](CSCC(F)(F)F)Nc2cc(Cl)c(S(N)(=O)=O)cc2S1(=O)=O [Polythiazide(S)],High (key: High: HIA value ≥0.7; Low: HIA value < 0.7),1
CC(=O)Nc1ccc(OC[C@H](O)CNC(C)C)cc1 [Practolol(R)],High (key: High: HIA value ≥0.7; Low: HIA value < 0.7),0.95
CC(=O)Nc1ccc(OC[C@@H](O)CNC(C)C)cc1 [Practolol(S)],High (key: High: HIA value ≥0.7; Low: HIA value < 0.7),0.95
CCCN[C@H]1CCc2nc(N)sc2C1 [Pramipexole(S)],High (key: High: HIA value ≥0.7; Low: HIA value < 0.7),0.8
O[C@@](CCN1CCCC1)(c1ccccc1)C1CCCCC1 [Procyclidine(R)],High (key: High: HIA value ≥0.7; Low: HIA value < 0.7),1
C[C@H](CN1c2ccccc2Sc2ccccc21)N(C)C [Promethazine(R)],High (key: High: HIA value ≥0.7; Low: HIA value < 0.7),0.95
C[C@@H](CN1c2ccccc2Sc2ccccc21)N(C)C [Promethazine(S)],High (key: High: HIA value ≥0.7; Low: HIA value < 0.7),0.95
CC(C)c1cccc(C(C)C)c1O [Propofol],High (key: High: HIA value ≥0.7; Low: HIA value < 0.7),1
C[C@@H](O)Cn1cnc2c1c(=O)n(C)c(=O)n2C [Proxyphylline(R)],High (key: High: HIA value ≥0.7; Low: HIA value < 0.7),1
C[C@H](O)Cn1cnc2c1c(=O)n(C)c(=O)n2C [Proxyphylline(S)],High (key: High: HIA value ≥0.7; Low: HIA value < 0.7),1
C=CCC1(C(C)CCC)C(=O)NC(=O)NC1=O (centres unmarked) [Quinalbarbitone],High (key: High: HIA value ≥0.7; Low: HIA value < 0.7),0.9
CCOC(=O)[C@H](CCc1ccccc1)N[C@@H](C)C(=O)N1[C@H](C(=O)O)C[C@@H]2CCC[C@@H]21 [Ramipril],Low (key: High: HIA value ≥0.7; Low: HIA value < 0.7),0.6
CCN1CCC[C@H]1CNC(=O)c1c(OC)ccc(Br)c1OC [Remoxipride(S)],High (key: High: HIA value ≥0.7; Low: HIA value < 0.7),1
CCOc1cc(CC(=O)N[C@@H](CC(C)C)c2ccccc2N2CCCCC2)ccc1C(=O)O [Repaglinide(S)],High (key: High: HIA value ≥0.7; Low: HIA value < 0.7),1
Cn1c(=O)c2c(ncn2CCCNC[C@H](O)c2cc(O)cc(O)c2)n(C)c1=O [Reproterol(R)],Low (key: High: HIA value ≥0.7; Low: HIA value < 0.7),0.6
Cn1c(=O)c2c(ncn2CCCNC[C@@H](O)c2cc(O)cc(O)c2)n(C)c1=O [Reproterol(S)],Low (key: High: HIA value ≥0.7; Low: HIA value < 0.7),0.6
CCN(C)C(=O)Oc1cccc([C@H](C)N(C)C)c1 [Rivastigmine],High (key: High: HIA value ≥0.7; Low: HIA value < 0.7),0.98

Compound,Class(High: HIA value ≥0.7; Low: HIA value < 0.7) [1],HIA(Human Intestinal Absorption) [2]
C#CCN(C)[C@H](C)Cc1ccccc1 [Selegiline(R)],High (key: High: HIA value ≥0.7; Low: HIA value < 0.7),1
CC(C)C[C@@H](N(C)C)C1(c2ccc(Cl)cc2)CCC1 [Sibutramine(R)],High (key: High: HIA value ≥0.7; Low: HIA value < 0.7),0.77
CC(C)C[C@H](N(C)C)C1(c2ccc(Cl)cc2)CCC1 [Sibutramine(S)],High (key: High: HIA value ≥0.7; Low: HIA value < 0.7),0.77
CC(C)NC[C@H](O)c1ccc(NS(C)(=O)=O)cc1 [Sotalol(R)],High (key: High: HIA value ≥0.7; Low: HIA value < 0.7),0.95
CC(C)NC[C@@H](O)c1ccc(NS(C)(=O)=O)cc1 [Sotalol(S)],High (key: High: HIA value ≥0.7; Low: HIA value < 0.7),0.95
Cc1cc(C)nc(NS(=O)(=O)c2ccc(N)cc2)n1 [Sulfamethazine],High (key: High: HIA value ≥0.7; Low: HIA value < 0.7),0.95
CCN1CCCC1CNC(=O)c1cc(S(N)(=O)=O)ccc1OC (centres unmarked) [Sulpiride],Low (key: High: HIA value ≥0.7; Low: HIA value < 0.7),0.44
CCN1CCC[C@@H]1CNC(=O)c1cc(S(=O)(=O)CC)ccc1OC [Sultopride(R)],High (key: High: HIA value ≥0.7; Low: HIA value < 0.7),0.89
CCN1CCC[C@H]1CNC(=O)c1cc(S(=O)(=O)CC)ccc1OC [Sultopride(S)],High (key: High: HIA value ≥0.7; Low: HIA value < 0.7),0.89
COc1cc2nc(N3CCN(C(=O)[C@H]4CCCO4)CC3)nc(N)c2cc1OC [Terazosin(R)],High (key: High: HIA value ≥0.7; Low: HIA value < 0.7),0.91
COc1cc2nc(N3CCN(C(=O)[C@@H]4CCCO4)CC3)nc(N)c2cc1OC [Terazosin(S)],High (key: High: HIA value ≥0.7; Low: HIA value < 0.7),0.91
CC(C)(C)NC[C@H](O)c1cc(O)cc(O)c1 [Terbutaline(R)],Low (key: High: HIA value ≥0.7; Low: HIA value < 0.7),0.63
CC(C)(C)NC[C@@H](O)c1cc(O)cc(O)c1 [Terbutaline(S)],Low (key: High: HIA value ≥0.7; Low: HIA value < 0.7),0.63
CC(C)(C)c1ccc([C@H](O)CCCN2CCC(C(O)(c3ccccc3)c3ccccc3)CC2)cc1 [Terfenadine(R)],High (key: High: HIA value ≥0.7; Low: HIA value < 0.7),1
CC(C)(C)c1ccc([C@@H](O)CCCN2CCC(C(O)(c3ccccc3)c3ccccc3)CC2)cc1 [Terfenadine(S)],High (key: High: HIA value ≥0.7; Low: HIA value < 0.7),1
C[C@]12CC[C@H]3[C@@H](CCC4=CC(=O)CC[C@@]43C)[C@@H]1CC[C@@H]2O [Testosterone],High (key: High: HIA value ≥0.7; Low: HIA value < 0.7),1
CCCCCc1cc(O)c2c(c1)OC(C)(C)[C@@H]1CCC(C)=C[C@@H]21 [Tetrahydrocannabinol],High (key: High: HIA value ≥0.7; Low: HIA value < 0.7),0.93
CCOC(=O)C1(c2ccccc2)CCC=CC1N(C)C (centres unmarked) [Tilidine],High (key: High: HIA value ≥0.7; Low: HIA value < 0.7),1
CC(C)(C)NC[C@H](O)COc1nsnc1N1CCOCC1 [Timolol(S)],High (key: High: HIA value ≥0.7; Low: HIA value < 0.7),0.95
Cc1cccc(C)c1NC(=O)[C@@H](C)N [Tocainide(R)],High (key: High: HIA value ≥0.7; Low: HIA value < 0.7),1
Cc1cccc(C)c1NC(=O)[C@H](C)N [Tocainide(S)],High (key: High: HIA value ≥0.7; Low: HIA value < 0.7),1
COc1cccc(C2(O)CCCCC2CN(C)C)c1 (centres unmarked) [Tramadol],High (key: High: HIA value ≥0.7; Low: HIA value < 0.7),0.9
O[C@@](CCN1CCCCC1)(c1ccccc1)C1CCCCC1 [Trihexyphenidyl(R)],High (key: High: HIA value ≥0.7; Low: HIA value < 0.7),1
O[C@](CCN1CCCCC1)(c1ccccc1)C1CCCCC1 [Trihexyphenidyl(S)],High (key: High: HIA value ≥0.7; Low: HIA value < 0.7),1
